# Source: patent publication US20260355097A1, “MICROBIOME FRIENDLY SUBSTANCES AND MICROBIOME FRIENDLY COSMETIC FORMULATIONS” (BASF SE, priority 2023, published 2026)
# Structures can show the parent of a compound that is named as a salt.
# System: Staphylococcus aureus, Staphylococcus epidermidis, Malassezia furfur
# Assay: Lowest MIC over the microorganisms tested
# Format: cell-based
# Conditions: lowest MIC value obtained over the tested microorganisms
# Procedure: Minimal Inhibitory Concentration tests are tests typically used to measure growth inhibition by a substance. MICs are defined as the lowest test concentrations of the test substance at which growth of specific microorganisms are inhibited.
# In the present case predefined dilutions of the test substance in the appropriate culture medium were prepared and inoculated with the microorganism of interest. After incubation, the test organisms were cultured over a time-period and under conditions normally allowing growth of the microorganism. Vehicle controls (vehicle=solvent used, e. g. water) were also assessed to determine growth without the test substance. The organisms of interest tested were the representative strains S. aureus (found on the skin, often a pathogen), S. epidermidis and Malassezia furfur. The higher the MIC value, the less inhibition of growth is observed. In the following results the test concentrations are given as percent of active substance content.
# For each substance the lowest MIC value obtained determines whether this substance in useful as microbiome friendly cosmetic ingredient. A substance is useful as microbiome friendly cosmetic ingredient, if this lowest MIC is not lower than a threshold value. This threshold value depends on the type of the substance (solubilizer, emulsifier etc.) and is related to the amount in which these types of substances are generally used in common cosmetic formulations.
row,Compound,lowest MIC [% by weight]
1,Conjugated Linoleic Acid,>1
2,CCCCC/C=C\C/C=C\CCCCCCCC(=O)OCC [ethyl linoleate],>1
3,CCOC(=O)CC(O)(CC(=O)OCC)C(=O)OCC [Triethyl Citrate],1
4,CCCCCCCC/C=C\CCCCCCCC(=O)OCC(O)CO (stereo not drawn) [Glyceryl Oleate],>2
5,Sodium Cetearyl Sulfate,0.08
6,CCCCCCCCCCCCCCCCCC(=O)OCC(O)CO.O=C(O)CC(O)(CC(=O)O)C(=O)O (stereo not drawn) [Glyceryl Stearate Citrate],>3
7,CCCCCCCCCCCCCCCCOP(=O)([O-])[O-].[K+].[K+] [Potassium Cetyl Phosphate],1.00
8,"CC(O)CCO (stereo not drawn) [Butylene Glycol, 1,3-Butanediol]",20.00
9,O=C(O)c1ccccc1 [Sodium Benzoate],0.25
10,Disodium Cetearyl Sulfosuccinate,0.05
11,"OCCCCO [1.4 Butandiol, 1,4 Butandiol]",>1
12,OCC(O)CO [Glycerin],20.00
